Laboratory results: patent publication US12268691B2 (Sinopia Biosciences, Inc., priority 2016, dated 2025)

Key:
[1] = tested on: 433 gene transcriptomic signature; settings: 10 uM, MCF7 cells; FIG. 3
CYP1A2 = target: T1, CYP1A2 (Homo sapiens, UniProt P05177); settings: cited from earlier work
T1 sequence (P05177 1-516): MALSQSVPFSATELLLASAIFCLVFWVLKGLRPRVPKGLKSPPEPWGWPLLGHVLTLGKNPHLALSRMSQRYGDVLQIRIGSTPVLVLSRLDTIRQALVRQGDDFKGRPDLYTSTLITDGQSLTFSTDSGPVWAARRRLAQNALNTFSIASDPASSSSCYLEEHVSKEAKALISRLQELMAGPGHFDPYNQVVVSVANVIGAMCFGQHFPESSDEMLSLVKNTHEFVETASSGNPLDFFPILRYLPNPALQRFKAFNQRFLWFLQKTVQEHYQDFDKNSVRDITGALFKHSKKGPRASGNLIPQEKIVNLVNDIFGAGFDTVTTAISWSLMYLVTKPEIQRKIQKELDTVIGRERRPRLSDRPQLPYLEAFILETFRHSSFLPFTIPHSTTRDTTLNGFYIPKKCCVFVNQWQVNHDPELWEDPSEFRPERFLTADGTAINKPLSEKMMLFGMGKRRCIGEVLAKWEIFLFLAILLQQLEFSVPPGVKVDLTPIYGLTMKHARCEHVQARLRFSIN

For O=C(CCCN1CCC(O)(c2ccc(Cl)cc2)CC1)c1ccc(F)cc1 [haloperidol], the “extrapyramidal syndrome propensity score, compound alone” value [1] is given as “much higher propensity than risperidone” and the “interaction with CYP1A2” value (CYP1A2) is given as “has not been shown to interact with haloperidol”.
